These results are taken from patent publication US20120034193A1, “TREATMENT OF NEUROTROPHIC FACTOR MEDIATED DISORDERS” (priority 2009, published 2012).

One data set deals with Progesterone. Put plainly: Receptor binding assay. Further details: species or system Bovine. Conditions: sarsasapogenin 10 μM. The procedure:
(§1) The receptor binding was investigated using the following method: Sarsasapogenin was incubated with tissue or cell homogenate that expressed the receptor of interest and a known concentration a radiolabelled compound with affinity for the receptor of interest. After the incubation period the non-bound radiolabelled compound was removed and the amount of specific binding was quantified. The amount of specific binding in the presence and absence of sarsasapogenin were compared and the percent inhibition of the binding of the radiolabelled compound by sarsasapogenin was calculated. The source of the receptor, the incubation conditions, the radiolabelled compound used varied depending on each specific assay.

In a further data set the target is T1, Histamine H1 (Cavia porcellus, UniProt P31389).
T1 construct: host or cells: tissue or cell homogenate, not specified
Kind of data set: Receptor binding assay. Further details: species or system Guinea Pig. Conditions: sarsasapogenin 10 μM. On the procedure:
as §1

The test system of data set [1] is phosphorylated CREB (pCREB). Kind of data set: Phosphorylated CREB in CHO cells (immunoblot). Conditions: 10 μM, 24 h, control 0.729 ± 0.112. In kind it is cell-based, Chinese hamster. On the procedure:
The CHO were incubated with DMSO (0.5%) or sarsasapogenin (10 μM) for 24 h. The cells were then washed with cold PBS, lysed in sodium dodecyl sulfate (SDS) buffer, boiled for 5 min and the protein content measured by the Bradford method. The samples were then separated on SDS polyacrylamide gels and transferred to PVDF (Bio-Rad) membrane. After exposure for 1 h in 5% skimmed milk powder, membranes were incubated overnight at 4° C. in primary antibody: mouse pCREB (Upsdate, 1:1000) and mouse β-actin (Santa Cruz, 1:1000). The membranes were then incubated in peroxidase conjugated secondary antibody (Wuhan Boster Biology Technology, China. 1:2000) for 1 h at room temperature and developed with ECL reagents (Pierce). Membranes were stripped by incubating in 2-mercaptoethanol (100 mM), SDS (2%), Tris HCl (62.5 mM) at pH 6.8 and 50° C. for 30 min Densitometric quantification of immunostaining was performed using Image J analysis system with an image analyzer (Gel Doc 2000, Bio-Rad). The relative amount of immunostaining of each band of pCREB was normalised to the β-actin band run in the same experiment and expressed as arbitrary units.
(In general: Immunoblotting shows a protein as a band on a membrane.)

A short description of data set [2]: Long term oral toxicity study, rats. In kind it is in vivo. To be noted: high doses, up to 26 week in rats.
Another data set is described as follows: Functional assay. Conditions: smilagenin 1 μM. In kind it is biochemical. On the procedure:
(§2) The enzyme activity modulation was investigated using the following method: Sarsasapogenin was incubated with each enzyme plus a specific substrate for each enzyme. After the incubation period the reaction was stopped and the reduction of the specific substrate or the increase in a specific product in the absence and presence of sarsasapogenin was measured and the percent inhibition of the reaction in the presence of sarsasapogenin was calculated. The amount of enzyme used, the incubation conditions, the substrate used and the method of quantification varied depending on each specific assay.
(§3) Using the same methods as described above, the binding of smilagenin (1 μM) to the receptors listed in Table 2 below, and the effect of smilagenin on the activity of the enzymes listed in Table 2 below, were investigated.

A further data set addresses Aldose reductase (Rattus norvegicus, UniProt P07943). Put plainly: Functional assay. In kind it is biochemical. To be noted: smilagenin 1 μM. On the procedure:
as §2, §3

The target of data set [3] is Protein Serine/Threonine Kinase, AKT1 (PRKBA) (Homo sapiens, UniProt P31749). Put plainly: Functional assay. Conditions: smilagenin 1 μM. In kind it is biochemical. The procedure: as §2, §3
Data set [4] has as its target Protein Serine/Threonine Kinase, AKT3 (PRKBG) (Homo sapiens, UniProt Q9Y243). Kind of data set: Functional assay. In kind it is biochemical. Conditions: smilagenin 1 μM. On the procedure:
as §2, §3

For data set [5], the target named is Protein Serine/Threonine Kinase, CAMK2D (KCC2D) (Homo sapiens, UniProt Q13557). Put plainly: Functional assay. In kind it is biochemical. Conditions: smilagenin 1 μM. The procedure:
as §2, §3

The target in data set [6] is Protein Serine/Threonine Kinase, MAP2K1 (MEK1 ) (Homo sapiens, UniProt Q02750). Kind of data set: Functional assay. In kind it is biochemical. To be noted: smilagenin 1 μM. The procedure:
as §2, §3

In data set [7] the target is Protein Serine/Threonine Kinase, MAPK1 (ERK2) (Homo sapiens, UniProt P28482). Put plainly: Functional assay. In kind it is biochemical. Conditions: smilagenin 1 μM. On the procedure:
as §2, §3

For data set [8], the target named is Protein Serine/Threonine Kinase, MAPK13 (p38δ) (Homo sapiens, UniProt O15264). Kind of data set: Functional assay. In kind it is biochemical. Conditions: smilagenin 1 μM. On the procedure: as §2, §3
Data set [9] addresses Protein Tyrosine Kinase, NTRK1 (trkA) (Homo sapiens, UniProt P04629). Put plainly: Functional assay. In kind it is biochemical. To be noted: smilagenin 1 μM. On the procedure:
as §2, §3

For data set [10], the target named is Protein Tyrosine Kinase, SRC (Homo sapiens, UniProt P12931). Kind of data set: Functional assay. In kind it is biochemical. Conditions: smilagenin 1 μM. On the procedure:
as §2, §3

The target in data set [11] is UDP Glucuronosyltransferase, UGT1A1 (Homo sapiens, UniProt P22309). Put plainly: Functional assay. In kind it is biochemical. To be noted: smilagenin 1 μM. On the procedure: as §2, §3
Data set [12] deals with Protein Serine/Threonine Kinase, PKC, Non-Selective. Kind of data set: Functional assay. In kind it is biochemical, Rat. Conditions: smilagenin 1 μM. The procedure: as §2, §3
A further data set concerns BDNF mRNA. Kind of data set: BDNF mRNA in rat cortical neurones pre-incubated 48 h then exposed to β-amyloid. To be noted: 10 μM pre-incubation 48 h. In kind it is cell-based. On the procedure: Rat cortical neurones were cultured by modification of a method previously described (Eckenstein and Sofroniew, Journal of Neuroscience, 1983, 3, pp. 2286-2291). On day 8, the culture medium was changed to a medium containing vehicle (DMSO, 0.5%) or smilagenin (10 μM). On day 10, rat primary cortical neurones were exposed to β-amyloid (10 μg/ml) for up to 48 h at 37° C. and the level of BDNF mRNA in the cortical neurones was assessed by rt RT-PCR over the following 48 h.

In a further data set the test system is GDNF mRNA. Kind of data set: GDNF mRNA in rat dopaminergic neurones following exposure to MPP+. In kind it is cell-based. Conditions: 10 μM after MPP+ 2 μM 48 h. The procedure:
Rat dopaminergic neurones were prepared using a slightly modified previously described method (Brouard et al., Journal of Neuroscience, 1992, 12, pp. 1409-1415). After 5 days in culture MPP^+ (2 μM), a specific dopaminergic neurotoxin, or vehicle (saline) was added for 48 h. The culture medium was then replaced with fresh medium containing smilagenin (10 μM) or vehicle (DMSO, 0.25%) and the level of GDNF mRNA in the dopaminergic neurones was assessed after 10 min and 2, 24, 48 and 72 h by rt RT-PCR.

Protein Serine/Threonine Kinase, AKT3 (PRKBG), sequence (Q9Y243 whole entry): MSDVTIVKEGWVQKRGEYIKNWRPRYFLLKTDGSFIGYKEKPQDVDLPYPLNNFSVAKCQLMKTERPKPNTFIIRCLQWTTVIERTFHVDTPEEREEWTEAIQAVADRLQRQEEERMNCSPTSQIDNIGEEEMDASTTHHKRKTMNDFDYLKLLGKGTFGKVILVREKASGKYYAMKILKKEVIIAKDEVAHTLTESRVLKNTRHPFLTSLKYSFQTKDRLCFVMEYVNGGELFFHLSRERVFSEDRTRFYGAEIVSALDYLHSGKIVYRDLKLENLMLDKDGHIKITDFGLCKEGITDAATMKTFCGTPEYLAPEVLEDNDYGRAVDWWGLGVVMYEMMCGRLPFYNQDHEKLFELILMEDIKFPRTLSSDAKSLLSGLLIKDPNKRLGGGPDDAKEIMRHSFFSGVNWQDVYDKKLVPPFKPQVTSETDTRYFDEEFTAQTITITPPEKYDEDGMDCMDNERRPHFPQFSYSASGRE
Protein Serine/Threonine Kinase, MAP2K1 (MEK1 ), sequence (Q02750 whole entry): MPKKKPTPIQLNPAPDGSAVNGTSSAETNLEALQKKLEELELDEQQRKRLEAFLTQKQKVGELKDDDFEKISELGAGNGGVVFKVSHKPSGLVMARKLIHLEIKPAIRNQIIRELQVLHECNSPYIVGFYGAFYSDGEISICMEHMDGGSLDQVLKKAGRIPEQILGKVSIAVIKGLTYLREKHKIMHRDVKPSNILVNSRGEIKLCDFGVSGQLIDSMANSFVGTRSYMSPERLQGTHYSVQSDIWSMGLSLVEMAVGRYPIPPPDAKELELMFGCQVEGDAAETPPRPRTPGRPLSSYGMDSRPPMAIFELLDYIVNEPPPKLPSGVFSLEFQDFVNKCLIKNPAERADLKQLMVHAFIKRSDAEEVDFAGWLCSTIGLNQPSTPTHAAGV
Protein Serine/Threonine Kinase, AKT1 (PRKBA), sequence (P31749 whole entry): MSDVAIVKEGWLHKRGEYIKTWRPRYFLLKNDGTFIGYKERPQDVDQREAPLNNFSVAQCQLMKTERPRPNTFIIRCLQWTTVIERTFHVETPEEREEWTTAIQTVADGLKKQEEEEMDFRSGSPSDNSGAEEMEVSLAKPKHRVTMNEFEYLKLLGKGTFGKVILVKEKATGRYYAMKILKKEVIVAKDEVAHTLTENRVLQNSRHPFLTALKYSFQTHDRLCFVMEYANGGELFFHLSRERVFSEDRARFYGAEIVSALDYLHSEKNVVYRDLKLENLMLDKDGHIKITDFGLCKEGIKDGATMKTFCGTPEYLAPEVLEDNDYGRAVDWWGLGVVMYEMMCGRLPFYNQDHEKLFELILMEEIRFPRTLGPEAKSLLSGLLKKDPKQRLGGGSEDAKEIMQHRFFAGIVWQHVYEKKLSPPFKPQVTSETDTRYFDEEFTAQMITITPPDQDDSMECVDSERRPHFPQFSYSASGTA
T1 sequence (P31389 whole entry): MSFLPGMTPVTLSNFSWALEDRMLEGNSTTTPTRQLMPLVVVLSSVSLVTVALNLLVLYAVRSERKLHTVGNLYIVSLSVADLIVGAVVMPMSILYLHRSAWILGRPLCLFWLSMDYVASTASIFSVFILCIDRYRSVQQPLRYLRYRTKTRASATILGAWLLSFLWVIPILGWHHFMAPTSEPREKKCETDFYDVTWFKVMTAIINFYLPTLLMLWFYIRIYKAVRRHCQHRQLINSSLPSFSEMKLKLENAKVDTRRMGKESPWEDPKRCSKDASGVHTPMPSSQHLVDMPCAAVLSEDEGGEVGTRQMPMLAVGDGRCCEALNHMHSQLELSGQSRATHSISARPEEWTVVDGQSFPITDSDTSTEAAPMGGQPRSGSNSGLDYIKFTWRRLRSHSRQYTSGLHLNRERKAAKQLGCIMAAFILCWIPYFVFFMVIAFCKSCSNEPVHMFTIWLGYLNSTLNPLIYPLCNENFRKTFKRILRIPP
Protein Serine/Threonine Kinase, CAMK2D (KCC2D), sequence (Q13557 whole entry): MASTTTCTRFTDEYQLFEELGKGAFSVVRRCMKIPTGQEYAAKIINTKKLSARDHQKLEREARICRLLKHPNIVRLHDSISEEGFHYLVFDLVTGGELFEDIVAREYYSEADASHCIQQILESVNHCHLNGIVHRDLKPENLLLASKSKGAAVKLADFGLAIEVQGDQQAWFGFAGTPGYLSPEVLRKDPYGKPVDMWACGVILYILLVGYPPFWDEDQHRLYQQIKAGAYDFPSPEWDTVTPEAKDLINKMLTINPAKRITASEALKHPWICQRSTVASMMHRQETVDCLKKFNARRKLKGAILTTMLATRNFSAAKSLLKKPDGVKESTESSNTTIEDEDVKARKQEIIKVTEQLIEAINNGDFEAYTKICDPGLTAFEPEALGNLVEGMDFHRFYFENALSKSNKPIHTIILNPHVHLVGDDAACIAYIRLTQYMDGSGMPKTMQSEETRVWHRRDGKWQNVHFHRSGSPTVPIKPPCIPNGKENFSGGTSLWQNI
Protein Serine/Threonine Kinase, MAPK1 (ERK2), sequence (P28482 whole entry): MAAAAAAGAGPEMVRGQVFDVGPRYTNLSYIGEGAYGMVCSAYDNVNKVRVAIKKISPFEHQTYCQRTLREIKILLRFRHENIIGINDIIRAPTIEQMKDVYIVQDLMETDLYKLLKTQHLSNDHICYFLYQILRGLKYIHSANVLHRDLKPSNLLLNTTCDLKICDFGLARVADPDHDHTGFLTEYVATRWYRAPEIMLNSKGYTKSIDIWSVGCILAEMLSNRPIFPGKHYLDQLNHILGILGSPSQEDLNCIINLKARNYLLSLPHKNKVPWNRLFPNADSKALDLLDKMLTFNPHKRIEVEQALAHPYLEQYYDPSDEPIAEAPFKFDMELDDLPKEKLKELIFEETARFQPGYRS
Protein Tyrosine Kinase, NTRK1 (trkA), sequence (P04629 33-796): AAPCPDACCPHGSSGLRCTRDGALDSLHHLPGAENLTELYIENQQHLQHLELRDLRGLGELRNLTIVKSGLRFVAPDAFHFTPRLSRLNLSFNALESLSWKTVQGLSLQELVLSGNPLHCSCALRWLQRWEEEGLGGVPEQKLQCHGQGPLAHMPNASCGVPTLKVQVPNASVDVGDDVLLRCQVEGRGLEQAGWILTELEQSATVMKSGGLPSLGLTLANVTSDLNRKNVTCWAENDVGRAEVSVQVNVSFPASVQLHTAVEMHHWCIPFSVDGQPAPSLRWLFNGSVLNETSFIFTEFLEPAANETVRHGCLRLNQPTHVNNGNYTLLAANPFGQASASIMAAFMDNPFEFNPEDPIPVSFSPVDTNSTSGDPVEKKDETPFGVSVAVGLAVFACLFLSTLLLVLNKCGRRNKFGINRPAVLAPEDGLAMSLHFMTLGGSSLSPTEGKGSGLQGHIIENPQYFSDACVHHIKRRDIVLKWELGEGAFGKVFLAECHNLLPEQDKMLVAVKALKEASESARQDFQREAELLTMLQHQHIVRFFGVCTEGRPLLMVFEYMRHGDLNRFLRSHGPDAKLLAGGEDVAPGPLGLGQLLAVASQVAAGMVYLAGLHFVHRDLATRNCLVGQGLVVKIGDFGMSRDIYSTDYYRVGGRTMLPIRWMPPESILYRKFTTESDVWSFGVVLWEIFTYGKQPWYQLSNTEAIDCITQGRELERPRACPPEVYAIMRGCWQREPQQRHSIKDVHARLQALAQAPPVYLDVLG
Protein Tyrosine Kinase, SRC, sequence (P12931 whole entry): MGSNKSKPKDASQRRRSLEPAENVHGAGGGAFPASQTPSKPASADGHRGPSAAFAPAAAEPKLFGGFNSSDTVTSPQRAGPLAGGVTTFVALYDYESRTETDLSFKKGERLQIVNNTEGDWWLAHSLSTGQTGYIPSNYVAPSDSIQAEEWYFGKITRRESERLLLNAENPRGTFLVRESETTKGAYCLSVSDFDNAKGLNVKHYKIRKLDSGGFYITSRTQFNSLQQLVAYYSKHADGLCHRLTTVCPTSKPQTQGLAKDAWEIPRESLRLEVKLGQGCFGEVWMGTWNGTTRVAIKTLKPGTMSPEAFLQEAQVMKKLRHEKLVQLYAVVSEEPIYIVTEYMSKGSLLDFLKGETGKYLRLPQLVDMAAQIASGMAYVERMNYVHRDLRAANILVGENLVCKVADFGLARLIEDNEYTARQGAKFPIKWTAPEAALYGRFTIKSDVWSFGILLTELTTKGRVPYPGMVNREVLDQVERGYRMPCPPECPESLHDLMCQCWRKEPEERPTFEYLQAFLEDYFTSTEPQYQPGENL
Protein Serine/Threonine Kinase, MAPK13 (p38δ), sequence (O15264 whole entry): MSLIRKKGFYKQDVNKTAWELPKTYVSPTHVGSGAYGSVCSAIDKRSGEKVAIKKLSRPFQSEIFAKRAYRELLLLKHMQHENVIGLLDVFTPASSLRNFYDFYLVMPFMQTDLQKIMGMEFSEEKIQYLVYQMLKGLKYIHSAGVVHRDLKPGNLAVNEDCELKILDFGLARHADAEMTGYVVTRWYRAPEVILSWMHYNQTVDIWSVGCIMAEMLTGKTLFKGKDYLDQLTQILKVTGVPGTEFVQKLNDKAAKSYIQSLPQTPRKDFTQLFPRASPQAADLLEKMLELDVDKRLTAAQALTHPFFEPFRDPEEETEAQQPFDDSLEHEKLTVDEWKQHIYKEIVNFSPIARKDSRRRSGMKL
UDP Glucuronosyltransferase, UGT1A1, sequence (P22309 26-533): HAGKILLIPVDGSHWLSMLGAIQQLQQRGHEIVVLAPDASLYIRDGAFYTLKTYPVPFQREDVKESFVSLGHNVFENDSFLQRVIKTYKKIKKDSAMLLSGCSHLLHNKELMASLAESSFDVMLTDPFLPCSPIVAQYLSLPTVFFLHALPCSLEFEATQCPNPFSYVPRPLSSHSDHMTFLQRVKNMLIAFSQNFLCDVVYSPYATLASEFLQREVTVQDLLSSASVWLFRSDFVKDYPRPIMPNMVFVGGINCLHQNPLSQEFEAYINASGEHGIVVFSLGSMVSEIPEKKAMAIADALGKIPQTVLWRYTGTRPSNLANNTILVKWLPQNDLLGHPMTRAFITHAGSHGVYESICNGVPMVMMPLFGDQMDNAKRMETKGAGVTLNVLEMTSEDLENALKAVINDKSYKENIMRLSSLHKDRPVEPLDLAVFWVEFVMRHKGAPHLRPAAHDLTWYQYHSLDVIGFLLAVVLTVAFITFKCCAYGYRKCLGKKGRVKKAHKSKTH

`C[C@H]1CC[C@@]2(OC1)O[C@H]1C[C@H]3[C@@H]4CC[C@@H]5C[C@@H](O)CC[C@]5(C)[C@H]4CC[C@]3(C)[C@H]1[C@@H]2C` [Sarsasapogenin, sarsasapogenin]: the “Effect (%)” value with Progesterone and at Histamine H1 was “NS (NS = No significant response. Significance was taken as ≧30% stimulation or inhibition)” throughout. Besides, the “Phosphorylated CREB (Arbitary units)” value in data set [1] is given as 1.342 ± 0.084^++ Arbitary units. Moreover, the Long term toxicity entry in [2] is “without showing any signs of toxicity or adverse events”.
As for `C[C@@H]1CC[C@@]2(OC1)O[C@H]1C[C@H]3[C@@H]4CC[C@@H]5C[C@@H](O)CC[C@]5(C)[C@H]4CC[C@]3(C)[C@H]1[C@@H]2C` [Smilagenin, smilagenin], the “Effect (%)” value (in the data set “Functional assay”; on Aldose reductase; in data set [3]; in data set [4]; in data set [5]; in [6]) was “NS (NS = No significant response. Significance was taken as ≧30% stimulation or inhibition)” throughout. The “Effect (%)” value in data set [7], in [8], in data set [9], in data set [10], in data set [11] and in data set [12] was “NS (NS = No significant response. Significance was taken as ≧30% stimulation or inhibition)” each time. For the same molecule, the “Relative amount of BDNF mRNA (% of control at 0 h)” value with BDNF mRNA (β-amyloid 10 μg/ml exposure 6 h) was 108.0 ± 5.2 % of control at 0 h; in the data set with BDNF mRNA (β-amyloid 10 μg/ml exposure 24 h), 321.5 ± 54.2 % of control at 0 h; with BDNF mRNA (β-amyloid 10 μg/ml exposure 48 h), 334.6 ± 48.1 % of control at 0 h. Further, the “Relative amount of GDNF mRNA (% of control at 0.167 h)” value is listed as 119.9 ± 19.8 % of control at 0.167 h in the data set with GDNF mRNA (smilagenin exposure 0.167 h); 581.6 ± 66.3 % of control at 0.167 h in the data set on GDNF mRNA (smilagenin exposure 2 h); 3319.1 ± 830.3 % of control at 0.167 h in the data set with GDNF mRNA (smilagenin exposure 24 h); 2185.3 ± 304.1 % of control at 0.167 h in the data set on GDNF mRNA (smilagenin exposure 48 h); 1413.5 ± 352.1 % of control at 0.167 h in the data set on GDNF mRNA (smilagenin exposure 72 h).
